Test results taken from ChEMBL document CHEMBL3044915, “Synthesis and Insecticidal Activity of N-(4-Aryloxybenzyl)-pyrazolecarboxamide Derivatives” (1996).

How the values were obtained:
Format in all cases: functional
Nephotettix cincticeps [1] = assay: Insecticidal activity against green rice Nephotettix cincticeps (green rice leafhopper) third-instar larvae assessed as mortality at 0.8 ppm applied through spray measured after 4 days; conditions: for mortality at 0.8 ppm: Nephotettix cincticeps, 96 h
Nephotettix cincticeps [2] = assay: Insecticidal activity against green rice Nephotettix cincticeps (green rice leafhopper) third-instar larvae assessed as mortality at 50 ppm applied through spray measured after 4 days; conditions: 96 h
Nephotettix cincticeps [3] = assay: Insecticidal activity against green rice Nephotettix cincticeps (green rice leafhopper) third-instar larvae assessed as mortality at 3.1 ppm applied through spray measured after 4 days; conditions: for mortality at 3.1 ppm: Nephotettix cincticeps, 96 h
Nephotettix cincticeps [4] = assay: Insecticidal activity against green rice Nephotettix cincticeps (green rice leafhopper) third-instar larvae assessed as mortality at 12.5 ppm applied through spray measured after 4 days; conditions: 96 h
Nilaparvata lugens [5] = assay: Insecticidal activity against Nilaparvata lugens (brown planthopper) third-instar larvae assessed as mortality at 3.1 ppm applied through spray measured after 5 days; conditions: 120 h
Plutella xylostella [6] = assay: Insecticidal activity against Plutella xylostella (diamondback moth) third-instar larvae in compound treated cabbage leaf assessed as mortality at 0.8 ppm measured after 4 days; conditions: 96 h
Myzus persicae [7] = assay: Insecticidal activity against Myzus persicae (green peach aphid) assessed as mortality at 12.5 ppm measured after 4 days; conditions: 96 h
Myzus persicae [8] = assay: Insecticidal activity against Myzus persicae (green peach aphid) assessed as mortality at 0.8 ppm measured after 4 days; conditions: 96 h
Nilaparvata lugens [9] = assay: Insecticidal activity against Nilaparvata lugens (brown planthopper) third-instar larvae assessed as mortality at 12.5 ppm applied through spray measured after 5 days; conditions: 120 h
Tetranychus urticae [10] = assay: Insecticidal activity against Tetranychus urticae (two-spotted spider mite) assessed as mortality at 12.5 ppm
Plutella xylostella [11] = assay: Insecticidal activity against Plutella xylostella (diamondback moth) third-instar larvae in compound treated cabbage leaf assessed as mortality at 3.1 ppm measured after 4 days; conditions: 96 h
Plutella xylostella [12] = assay: Insecticidal activity against Plutella xylostella (diamondback moth) third-instar larvae in compound treated cabbage leaf assessed as mortality at 12.5 ppm measured after 4 days; conditions: 96 h
Nilaparvata lugens [13] = assay: Insecticidal activity against Nilaparvata lugens (brown planthopper) third-instar larvae assessed as mortality at 0.8 ppm applied through spray measured after 5 days; conditions: 120 h
Tetranychus urticae [14] = assay: Insecticidal activity against Tetranychus urticae (two-spotted spider mite) assessed as mortality at 3.1 ppm
Myzus persicae [15] = assay: Insecticidal activity against Myzus persicae (green peach aphid) assessed as mortality at 3.1 ppm measured after 4 days; conditions: 96 h

SMILES | mortality at 50 ppm (Nephotettix cincticeps [2]) | mortality at 3.1 ppm (Nephotettix cincticeps [3]) | mortality at 12.5 ppm (Nephotettix cincticeps [4]) | other results
Cc1nn(C)c(C(=O)NCc2ccc(Oc3ccc(C(F)(F)F)cc3)cc2)c1Cl | 100% | 80% | 80% | mortality at 0.8 ppm (Nephotettix cincticeps [1]): 30%
CC1CCc2c1nn(C)c2C(=O)NC(C)(C)c1ccc(Oc2ccc(C(F)(F)F)cc2)cc1 (stereo unspecified) | 0% | – | – | –
CCc1nn(C)c(C(=O)NCc2ccc(Oc3ccc(C(F)(F)F)cc3)cc2)c1Br | 100% | 30% | 100% | mortality at 0.8 ppm (Nephotettix cincticeps [1]): 30%
CCc1nn(C)c(C(=O)NCc2ccc(Oc3ccc([N+](=O)[O-])cc3)cc2)c1Cl | 100% | 100% | 100% | –
CCc1nn(C)c(C(=O)NCc2ccc(Oc3ccc(C(F)F)cc3)cc2)c1Cl | 100% | 100% | 100% | –
CC1CCc2c1nn(C)c2C(=O)NCc1ccc(Oc2ccc(C#N)cc2)cc1 (stereo unspecified) | – | 0% | 30% | mortality at 3.1 ppm (Nilaparvata lugens [5]): 80%; mortality at 0.8 ppm (Plutella xylostella [6]): 30%; mortality at 12.5 ppm (Myzus persicae [7]): 100%; mortality at 0.8 ppm (Myzus persicae [8]): 0%; mortality at 12.5 ppm (Nilaparvata lugens [9]): 100%; mortality at 12.5 ppm (Tetranychus urticae [10]): 100%; mortality at 3.1 ppm (Plutella xylostella [11]): 100%; mortality at 12.5 ppm (Plutella xylostella [12]): 100%; mortality at 0.8 ppm (Nilaparvata lugens [13]): 80%; mortality at 3.1 ppm (Tetranychus urticae [14]): 100%; mortality at 3.1 ppm (Myzus persicae [15]): 80%
CC1CCc2c1nn(C)c2C(=O)NCc1ccc(Oc2ccc(C(F)(F)F)cc2)cc1 (single isomer, unassigned; (-)) | 100% | – | 100% | mortality (Nephotettix cincticeps [1]): 80%; mortality (Nephotettix cincticeps [3]): 100%
CCc1nn(C)c(C(=O)NCc2ccc(Oc3ccc(OCC(F)(F)F)cc3)cc2)c1Cl | 100% | – | 30% | –
CCc1nn(C)c(C(=O)NCc2ccc(Oc3ccc(OC(C)C)cc3)cc2)c1Cl | 80% | 0% | 30% | –
CCc1nn(C)c(C(=O)NCc2ccc(Oc3ccc(C(F)(F)F)cc3)cc2)c1Cl | 100% | 30% | 100% | –
CCc1nn(C)c(C(=O)NCc2ccc(Oc3ccc(C(F)(F)F)cc3)cc2)c1F | 100% | 30% | 100% | mortality at 0.8 ppm (Nephotettix cincticeps [1]): 0%
CCc1nn(C)c(C(=O)NCc2ccc(Oc3ccc(OC)cc3)cc2)c1Cl | 100% | 30% | 100% | –
CCc1ccc(Oc2ccc(CNC(=O)c3c(Cl)c(CC)nn3C)cc2)cc1 | 100% | 30% | 80% | –
CCc1nn(C)c(C(=O)NCc2ccc(Oc3ccc(SC)cc3)cc2)c1Cl | 100% | 80% | 100% | –
CCc1nn(C)c(C(=O)NCc2ccc(Oc3ccc(OC(F)F)cc3)cc2)c1Cl | 100% | 80% | 100% | –
CCc1nn(C)c(C(=O)NCc2ccc(Oc3ccc(CC(C)C)cc3)cc2)c1Cl | 0% | – | – | –
CCc1nn(C)c(C(=O)NCc2ccc(Oc3ccc(Cl)cc3)cc2)c1Cl | 100% | 80% | 80% | –
Cn1nc2c(c1C(=O)NCc1ccc(Oc3ccc(C(F)(F)F)cc3)cc1)CCCC2 | 100% | 80% | 80% | mortality at 0.8 ppm (Nephotettix cincticeps [1]): 0%
CCc1cc(C(=O)NCc2ccc(Oc3ccc(C(F)(F)F)cc3)cc2)n(C)n1 | 100% | 30% | 100% | –

SMILES | mortality at 50 ppm (Nephotettix cincticeps [2]) | mortality at 3.1 ppm (Nephotettix cincticeps [3]) | mortality at 12.5 ppm (Nephotettix cincticeps [4]) | other results
CC1CCc2c1nn(C)c2C(=O)NCc1ccc(Oc2ccc(C(F)(F)F)cc2)cc1 (racemic) | – | – | – | mortality (Nephotettix cincticeps [1]): 30%; mortality at 3.1 ppm (Nilaparvata lugens [5]): 100%; mortality at 0.8 ppm (Plutella xylostella [6]): 0%; mortality at 12.5 ppm (Myzus persicae [7]): 100%; mortality at 0.8 ppm (Myzus persicae [8]): 100%; mortality at 12.5 ppm (Nilaparvata lugens [9]): 100%; mortality at 12.5 ppm (Tetranychus urticae [10]): 100%; mortality at 3.1 ppm (Plutella xylostella [11]): 80%; mortality at 12.5 ppm (Plutella xylostella [12]): 100%; mortality at 0.8 ppm (Nilaparvata lugens [13]): 100%; mortality at 3.1 ppm (Tetranychus urticae [14]): 100%; mortality at 3.1 ppm (Myzus persicae [15]): 100%
Cn1ncc(Cl)c1C(=O)NCc1ccc(Oc2ccc(C(F)(F)F)cc2)cc1 | 100% | 30% | 80% | –
CCc1nn(C)c(C(=O)NCc2ccc(Oc3ccccc3)cc2)c1Cl | 100% | – | 30% | –
CCc1nn(C)c(C(=O)NCc2ccc(Oc3ccc(C(C)C)cc3)cc2)c1Cl | 80% | – | 30% | –
CCc1nn(C)c(C(=O)NCc2ccc(C(C)(C)C)cc2)c1Cl [TEBUFENPYRAD] | – | – | 0% | mortality at 12.5 ppm (Myzus persicae [7]): 30%; mortality at 12.5 ppm (Nilaparvata lugens [9]): 0%; mortality at 12.5 ppm (Tetranychus urticae [10]): 100%; mortality at 12.5 ppm (Plutella xylostella [12]): 0%; mortality at 3.1 ppm (Tetranychus urticae [14]): 100%
CC(C)c1nn(C)c(C(=O)NCc2ccc(Oc3ccc(C(F)(F)F)cc3)cc2)c1Cl | 80% | 30% | 80% | –
CC1CCc2c1nn(C)c2C(=O)NC(C)c1ccc(Oc2ccc(C(F)(F)F)cc2)cc1 (single isomer, unassigned; diastereomer 2) | 100% | 80% | 100% | mortality at 0.8 ppm (Nephotettix cincticeps [1]): 0%
CCc1nn(C)c(C(=O)NCc2ccc(Oc3ccc(SC(C)C)cc3)cc2)c1Cl | 100% | 30% | 30% | –
CCc1nn(C)c(C(=O)NCc2ccc(Oc3ccc([S+](C)[O-])cc3)cc2)c1Cl (stereo unspecified) | 100% | 30% | 100% | –
CC1CCCc2c1nn(C)c2C(=O)NCc1ccc(Oc2ccc(C(F)(F)F)cc2)cc1 (stereo unspecified) | 100% | 0% | 100% | mortality at 0.8 ppm (Nephotettix cincticeps [1]): 0%
CCc1nn(C)c(C(=O)NCc2ccc(Oc3ccc(S(C)(=O)=O)cc3)cc2)c1Cl | 100% | 30% | 100% | –
CC1CCc2c1nn(C)c2C(=O)NCc1ccc(Oc2ccc(C(F)(F)F)cc2)cc1 (single isomer, unassigned; (+)) | – | – | – | mortality (Nephotettix cincticeps [3]): 30%
CCC1CCc2c1nn(C)c2C(=O)NCc1ccc(Oc2ccc(C(F)(F)F)cc2)cc1 (stereo unspecified) | 100% | 30% | 100% | mortality at 0.8 ppm (Nephotettix cincticeps [1]): 0%
CCc1nn(C)c(C(=O)NCc2ccc(Oc3ccc(C#N)cc3)cc2)c1Cl | 100% | 0% | 100% | –
CC1CCc2c1nn(C)c2C(=O)NCc1ccc(C(C)(C)C)cc1 (stereo unspecified) | – | – | 30% | mortality at 12.5 ppm (Myzus persicae [7]): 0%; mortality at 12.5 ppm (Nilaparvata lugens [9]): 0%; mortality at 12.5 ppm (Tetranychus urticae [10]): 100%; mortality at 12.5 ppm (Plutella xylostella [12]): 0%; mortality at 3.1 ppm (Tetranychus urticae [14]): 100%
CCSc1ccc(Oc2ccc(CNC(=O)c3c(Cl)c(CC)nn3C)cc2)cc1 | 100% | 30% | 80% | –
Cn1nc2c(c1C(=O)NCc1ccc(Oc3ccc(C(F)(F)F)cc3)cc1)CCC2 | 100% | 100% | 100% | mortality at 0.8 ppm (Nephotettix cincticeps [1]): 0%
CCc1nn(C)c(C(=O)NCc2ccc(Oc3ccc(C)cc3)cc2)c1Cl [TOLFENPYRAD] | 100% | 30% | 100% | –
